Test results taken from US9872919B2, “Prodrugs for selective anticancer therapy” (THE RESEARCH FOUNDATION FOR THE STATE UNIVERSITY OF NEW YORK, priority 2012, dated 2018).

Tests used:
Assay type in all cases: cell-based, human
[1] = tested on: non-malignant Caco-2 cells; experiment: MTS cell viability assay, Caco-2
Description: (§1) FIG. 13. Inhibition of cell viability by BKAc-Puro is presented in dose-response curve format for the same cell lines as in FIG. 8. The cell lines were treated with DMSO or the indicated doses of agent (4.22, 8.44, 16.9, 33.8, 67.5, or 135 μM) for 5 d followed by MTS assay. Data represent mean values of triplicate mesurements±s.d. (n=3). IC50 values were fit by logistic regression.
(§2) Cell number was determined by cell counting using improved Neubauer hemacytometer. Cell viability was calculated as the number of viable cells divided by the total number of cells using Trypan Blue Stain (Invitrogen) to distinguish non-viable cells. Data were obtained from duplicated samples with quadruplicate measurements. MTS based cell viability assay was performed using CellTiter 96 Aqueous Cell Proliferation Assay (Promega) according to the manufacturer's instruction. […] After additional 2-3 h incubation, the absorbance of the formazan at 490 nm was measured by the microplate reader. […] Determination of non-viable cells using PI staining was performed by adding 1 μg/ml of PI solution (Sigma) to the cell culture, prior to the examination under fluorescence microscopy (Axiovert 3, Carl Zeiss) through a×32 objective equipped with a digital imaging processor (Infinity 3, Lumenera).

[2] = tested on: malignant cell lines with high HDAC and CTSL activity (COGA-10, HCA-7, HT29, HCT116); experiment: MTS cell viability assay, malignant colon cancer cell lines; settings: 5 d, panel of colon cell lines, given as a range, read-out: IC50, inhibition of cell viability
Description: as §1, §2

CCD841-CoN cells = experiment: MTS cell viability assay, normal colon cells; settings: negative control in pancreatic and prostate panels
Description: FIG. 15. Inhibition of cell viability by BKAc-Puro. The cell lines were grown and analyzed as in FIG. 12.
FIG. 18. Selective cytotoxicity by BKAc-Puro on pancreatic cancer cells. Pancreatic cancer (BXPC-3 and Miapaca-2), colon cancer (HCT116 as a positive control sensitive to the drug), and normal colon (CCD841-CoN as a negative control) cells were grown and analyzed as in FIG. 13. BKAc-Puro can effectively cause cell death on pancreatic cancer cells (BXPC-3 and MiaPaca-2) that are known to resistant to conventional chemotherapeutic drugs including 5-FU and Gemicitabine.
FIG. 19. Selective cytotoxicity by BKAc-Puro on prostate cancer cells. Prostate cancer (PC-3, DU-145, and LNCaP), colon cancer (HCT116 as a positive control sensitive to the drug), and normal colon (CCD841-CoN as a negative control) cells were grown and analyzed as in FIG. 13. BKAc-Puro can effectively cause cell death on prostate cancer cells.
Cell number was determined by cell counting using improved Neubauer hemacytometer. Cell viability was calculated as the number of viable cells divided by the total number of cells using Trypan Blue Stain (Invitrogen) to distinguish non-viable cells. Data were obtained from duplicated samples with quadruplicate measurements. […] After additional 2-3 h incubation, the absorbance of the formazan at 490 nm was measured by the microplate reader. […]

[3] = tested on: HCT116, HT29, CCD841-CoN and Caco-2 cells; experiment: Immunological detection of Puro-labeled proteins in cells
Description: (§3) FIG. 27. Levels of Puro-incorporated proteins in the cells were monitored by immunoblotting. Indicated cell lines were treated either with vehicle control DMSO or Boc-KAc-Puro (16.9 μM) in the presence or absence of TSA (0.5 μM) for 20 h, followed by preparation of cell lysates. The lower panel (anti-α-Tubulin) serves as a loading control.
as §3, with “28.” for “27.”, “Puro (2.1” for “Boc-KAc-Puro (16.9”, “16” for “20”, “lysates. […]” for “lysates.”
Cultured cells or tissue samples were sonicated in RIPA lysis buffer (1% NP-40, 0.1% SDS, 50 mM Tris-HCl pH 7.4, 150 mM NaCl, 0.5% sodium deoxycholate, 1 mM EDTA) supplemented with PMSF and protease inhibitor cocktail (Roche) on ice followed by clarification. Protein lysates were separated on sodium dodecyl sulfate-polyacrylamide gels and transferred onto nitrocellulose membranes (Whatman). The primary antibodies used were anti-puromycin (3RH11, KeraFAST) and anti-α-tubulin (Sigma-Aldrich). Proteins of interest were detected with anti-mouse secondary antibody by chemiluminescence (ECL Kit, GE Healthcare Life Sciences).

[4] = tested on: pancreatic cancer cells (BXPC-3 and MiaPaca-2); experiment: MTS cell viability assay, pancreatic cancer cell lines
Description: FIG. 16. Anticancer effect of BKAc-Puro on pancreatic cell lines. The cell lines were treated with DMSO (vehicle), BKAc-Puro (54 μM), or Puro (4.2 μM) for 5 d followed by MTS assay. Normal Eph4 (non-pancreatic) cells are shown as control. Data represent mean values of triplicate mesurements±s.d.
FIG. 18. Selective cytotoxicity by BKAc-Puro on pancreatic cancer cells. Pancreatic cancer (BXPC-3 and Miapaca-2), colon cancer (HCT116 as a positive control sensitive to the drug), and normal colon (CCD841-CoN as a negative control) cells were grown and analyzed as in FIG. 13. […]
as §2, with “cells.” for “cells. Data were obtained from duplicated samples with quadruplicate measurements. MTS based cell viability assay was performed using CellTiter 96 Aqueous Cell Proliferation Assay (Promega) according to the manufacturer's instruction.”

Structure (SMILES): COc1ccc(C[C@H](NC(=O)[C@H](CCCCNC(C)=O)NC(=O)OC(C)(C)C)C(=O)N[C@H]2[C@@H](O)[C@H](n3cnc4c(N(C)C)ncnc43)O[C@@H]2CO)cc1 [BKAc-Puro, N-[3′-(α-Amino-p-methoxyhydrocinnamamido)-3′-deoxy-N,N-dimethyldenosinyl]-N-α-(t-butoxycarbonyl)-N-ε-acetyl-L-lysineamide]
- highest inactive dose relative to dose of parental Puro effective to these cells ([1]; Caco-2, 135 μM BKAc-Puro vs parental Puro): more than 30 times
- IC50 ([1]; MTS, 5 d, sufficient inhibition not achieved with doses up to 135 μM): > 135 µM
- IC50 [2]: ~10 µM
- effect on normal colon cells (CCD841-CoN cells): relatively little effect
- intensity of Puro incorporation in the presence of TSA ([3]; TSA 0.5 μM): compromised intensity
- intensity of Puro incorporation, malignant vs normal and non-malignant cells ([3]; immunoblot, Boc-KAc-Puro 16.9 μM 20 h, Puro 2.1 μM 16 h): substantially greater in malignant cancer cells
- anticancer effect on cell viability ([4]; 54 μM, 5 d, MTS): effective
- cell death ([4]; cells known to be resistant to 5-FU and Gemicitabine): effectively caused cell death
